According to US20230390243A1, “Compositions and Uses Thereof” (Purposeful IKE, priority 2020, published 2023):
Several values for one entry are separate records, joined by “and”; a condition that tells them apart may be missing. Identical values can stand only once. Like-named read-outs stand apart in the source and are kept apart here.

Assays:
[1] = test system: Fmr1 KO mice; test: Sociability: three chamber partition test; assay type: in vivo; parameters: unit not given here; details: for Mean 2 (F_ group mean), Sociability / Mean Diff. (F_KO-V vs. F_ group), Sociability: F_ values; for Mean 2 (F_ group mean), Sociability / Mean 2 (N_ group mean), Sociability / Mean 2 (group mean), Sociability: KO group mean; for Mean 2 (F_ group mean), Sociability / Mean 2 (N_ group mean), Sociability: table against F_KO-V; for Mean 2 (F_ group mean), Sociability: doses as E34; for Mean Diff. (F_KO-V vs. F_ group), Sociability: Ergoloid 2 + Oxitriptan 40 mg/kg; for Mean 2 (N_ group mean), Sociability: doses as E37; for Mean 2 (group mean), Sociability: table against N_WT-V (mean 99.10), doses as E13; for Mean Diff. (N_WT-V vs. group), Sociability: Dunnett's test against N_WT-V, Ergoloid 2 + Sumatriptan 10, Ergoloid 2 + Oxitriptan 40 mg/kg
Protocol: (§1) Fmr1 KO mice backcrossed to the FVB strain and WT littermates were used during experiments. TransnetXY Automated Genotyping (www.transnetyx.com/). TRANSNETYX, INC., 8110 Cordova Rd. Suite 119, Cordova, TN 38016, USA was used for genotyping. The animals were pretreated for 14 days. The active ingredients of Sumatriptan and Ergoloid were in a water carrier, whereas oxitriptan was in a methanol carrier.
(§2) The mice were housed in plastic cages (35×30×12 cm), 5 in each. The room temperature (21±2° C.),relative humidity (55±5%), a 12-h light-dark cycle (lights on 7 a.m.-7 p.m.) and air exchange (16 times per h) were automatically controlled. The animals had free access to commercial food pellets and water. Testing was conducted during the light phase. Ten mice per treatment group were used for the AGS experiments. Experiments were conducted in line with the requirements of the UK Animals (Scientific Procedures) Act, 1986.
(§3) All experiments were conducted with the experimenter blind to genotype and drug treatment. Separate investigators prepared and coded dosing solutions, allocated the mice to the study treatment groups, dosed the animals, and collected the Audiogenic Seizure data.
(§4) Behavior testing was conducted at 2 weeks. The behavioral tests were as follows: 1. Hyperactivity: Open field; 2. Stereotypy: Self-grooming; 3. Sociability: Three chamber partition test; 4. Memory and Learning: Novel Object Recognition; 5. Anxiety: hyponeophagia; and 6. Test of daily living: marble burying
For sociability a three chamber partition test was utilized. The three-chamber paradigm test known as Crawley's sociability and preference for social novelty protocol has previously been successfully employed to study social affiliation and social memory in several inbred and mutant mouse lines. The main principle of the test was based on the free choice by a subject mouse to spend time in any of three box's compartments during two experimental sessions, including indirect contact with one or two mice with which it was unfamiliar (Kaidanovich-Beilin 2011).
(§5) The treatment of the mice with OX (Oxitriptan), SU (Sumatriptan), ER (Ergoloid mesylates) were according to the matrix shown below in Table 1.

[2] = test system: Fmr1 KO mice; test: Test of daily living (marble burying / nesting); assay type: in vivo; parameters: scale not given here; details: for Mean Diff. (KO-V vs. group), Test of daily living: Dunnett's test against KO-V, Ergoloid 2 + Oxitriptan 40 mg/kg; for Mean Diff. (KO-V vs. group), Test of daily living / Mean Diff. (WT-V vs. group), Test of daily living: Sumatriptan 20, Oxitriptan 40, Ergoloid 4 mg/kg; for Mean Diff. (WT-V vs. group), Test of daily living: Dunnett's test against WT-V, Column F Ergoloid 2 + Sumatriptan 10, Column G Ergoloid 2 + Oxitriptan 40 mg/kg; for Mean 2 (group mean), Test of daily living: KO group mean, n 10
Protocol: as §1, §2, §3, §4
For test of daily living, nesting was assessed as nest building is an innate behavior in rodents, even when raised in laboratory settings. Synthetic and/or natural materials (such as twine, tissue, cotton, paper, and hay) are provided as a gauge of their overall well-being and as an ancillary assessment to predict the possible decline in cognition. Typically, changes in nesting behaviors, such as failure to create a nest, indicate a change in health or welfare. In addition, nesting behavior is sensitive to many environmental and physiological challenges, as well as many genetic mutations underlying pathological disease states (Gaskill 2013).
as §5

[3] = test system: Fmr1 KO mice; test: Anxiety: hyponeophagia test; assay type: in vivo; parameters: unit not given here; details: for Mean Diff. (KO-V vs. group), Hyponeophagia: Dunnett's test against KO-V, Ergoloid 2 + Oxitriptan 40 mg/kg; for Mean 2 (group mean), Hyponeophagia: KO group mean, n 10
Protocol: as §1, §2, §3, §4
For anxiety a hyponeophagia test was conducted. Mice and rats cannot vomit, due to the tightness of the cardiac sphincter of the stomach, so to overcome the problem of potential food toxicity they have evolved a strategy of first ingesting only very small amounts of novel substances. The amounts ingested then gradually increase until the animal has determined whether the substance is safe and nutritious. So the old rat-catchers would first put a palatable substance such as oatmeal, which was to be the vehicle for the toxin, in the infested area (Deacon 2011).
as §5

[4] = test system: Fmr1 KO mice; test: Open field test (hyperactivity); assay type: in vivo; parameters: unit not given here; details: for Mean 2 (group mean), Open Field: KO group mean, n 10
Protocol: as §1, §2, §3, §4
For hyperactivity, the open field test (OFT) is a common measure of exploratory behavior and general activity in both mice and rats, where both the quality and quantity of the activity can be measured. Principally, the open field (OF) is an enclosure, generally square, rectangular, or circular in shape with surrounding walls that prevent escape. The OFT is also commonly used as a mechanism to assess the sedative, toxic, or stimulant effects of compounds (Gould 2009).
as §5

[5] = test system: Fmr1 KO mice; test: Stereotypy: self-grooming; assay type: in vivo; parameters: unit not given here; details: for Mean Diff. (KO-V vs. group), Stereotypy: Dunnett's test against KO-V; for Mean Diff. (KO-V vs. group), Stereotypy / Data table Stereotypy (individual animals): Sumatriptan 20, Oxitriptan 40, Ergoloid 4 mg/kg, Ergoloid 2 + Oxitriptan 40 mg/kg; for Data table Stereotypy (individual animals): KO mice, one value per animal
Protocol: as §1, §2, §3, §4
For stereotypy, self-grooming was assessed. Self-grooming in animals is an innate behaviour that is involved in hygiene maintenance and other physiologically important processes, including thermoregulation, social communication and de-arousal. It is one of the most frequently observed behaviours in awake rodents and has a patterned, sequential organization with characteristic cephalocaudal progression (Kalueff 2016).
as §5

[6] = test system: Fmr1 KO mice; test: Memory and learning: Novel Object Recognition (NOR); assay type: in vivo; parameters: unit not given here; details: for Mean 2 (group mean), NOR: table against N_WT-V (mean 13.90), doses as E10; for Mean Diff. (N_WT-V vs. group), NOR: Dunnett's test against N_WT-V, Ergoloid 2 + Sumatriptan 10, Ergoloid 2 + Oxitriptan 40 mg/kg
Protocol: as §1, §2, §3, §4
For memory and learning, a novel object recognition (NOR) task was used to evaluate the rodents' ability to recognize a novel object in the environment. […] The task procedure consists of three phases: habituation, familiarization, and test phase (Antunes 2012).
as §5

[7] = cited from earlier work
[8] = test system: patients with autism or Asperger's disorder; details: versus placebo; cited from earlier work
[9] = test system: FMR1 mice; test: Behavioral experiments, FXS phenotypes overall; assay type: in vivo; details: summary statement
Protocol: as §1, §4, §5

[10] = Dunnett's test against F_KO-V, Sumatriptan 20, Oxitriptan 40, Ergoloid 4 mg/kg
[11] = Fmr1 KO mice, Oxitriptan 40 mg/kg, F column, individual animals
[12] = Fmr1 KO mice, Oxitriptan 40 mg/kg, individual animals
[13] = N_ values, Sumatriptan 20, Oxitriptan 40, Ergoloid 4 mg/kg
[14] = table against KO-V (mean 1.200), doses as E25
[15] = table against WT-V (mean 4.800), doses as E7
[16] = Sumatriptan 20, Oxitriptan 40, Ergoloid 4 mg/kg
[17] = table against KO-V (mean 237.3), doses as E22
[18] = table against WT-V (mean 145.5), doses as E4
[19] = table against KO-V (mean 8263), doses as E16
[20] = table against WT-V (mean 4207), doses as E1
[21] = Fmr1 KO mice, Sumatriptan 20 mg/kg, F column, individual animals
[22] = Fmr1 KO mice, Sumatriptan 20 mg/kg, individual animals
[23] = N_ values, Dunnett's test against F_KO-V, Sumatriptan 20, Oxitriptan 40, Ergoloid 4 mg/kg, Column N Ergoloid 2 + Oxitriptan 40 mg/kg

## N[C@@H](Cc1c[nH]c2ccc(O)cc12)C(=O)O [Oxitriptan]
[1]
  Mean 2 (F_ group mean), Sociability: 52.10
[1]; [10]
  Mean Diff. (F_KO-V vs. F_ group), Sociability: 29.50
[1]; [11]
  Sociability, F_KO-Oxitriptan: 54 and 52 (2×) and 50 (2×) and 53 (2×) and 51 and 55
[1]; [12]
  Sociability, N_KO-Oxitriptan: 104 and 98 (2×) and 97 (2×) and 100 (2×) and 99 (2×) and 96
[1]; N_ values
  Mean 2 (N_ group mean), Sociability: 98.80
  Mean 2 (group mean), Sociability: 96.80
[1]; [13]
  Mean Diff. (N_WT-V vs. group), Sociability: 0.3000
[2]
  Mean Diff. (KO-V vs. group), Test of daily living: −3.700
  Mean Diff. (WT-V vs. group), Test of daily living: −0.1000
[2]; [12]
  Tests of daily living, KO-Oxitriptan: 5 (9×) and 4
[2]; [14]
  Mean 2 (group mean), Test of daily living: 4.800
[2]; [15]
  Mean 2 (group mean), Test of daily living: 4.900
[3]; [16]
  Mean Diff. (KO-V vs. group), Hyponeophagia: 91.10
[3]; Dunnett's test against WT-V, Sumatriptan 20, Oxitriptan 40, Ergoloid 4 mg/kg, Column F Ergoloid 2 + Sumatriptan 10, Column G Ergoloid 2 + Oxitriptan 40 mg/kg
  Mean Diff. (WT-V vs. group), Hyponeophagia: −0.7000
[3]; [12]
  Hyponeophagia, KO-Oxitriptan: 151 and 145 and 150 and 140 (2×) and 147 and 143 and 152 and 148 and 146
[3]; [17]
  Mean 2 (group mean), Hyponeophagia: 146.2
[3]; [18]
  Mean 2 (group mean), Hyponeophagia: 146.2
[4]; Dunnett's test against KO-V, Sumatriptan 20, Oxitriptan 80, Ergoloid 4 mg/kg, Ergoloid 2 + Oxitriptan 40 mg/kg
  Mean Diff. (KO-V vs. group), Open Field: 3543
[4]; [19]
  Mean 2 (group mean), Open Field: 4720
[4]; [20]
  Mean 2 (group mean), Open Field: 4720
[5]
  Mean Diff. (KO-V vs. group), Stereotypy: 10.10
  Data table Stereotypy (individual animals): 34 and 37 (2×) and 40 and 36 and 38 (2×) and 33 and 31 and 29
[5]; KO group mean, n 10, table against KO-V (mean 45.40), doses as E19
  Mean 2 (group mean), Stereotypy: 35.30
[6]; [11]
  Novel Object Recognition, F_KO-Oxitriptan: 6 (4×) and 5 (3×) and 9 (2×) and 8 (2×)
[6]; [12]
  Novel Object Recognition, N_KO-Oxitriptan: 10 (4×) and 12 and 14 and 8 (2×) and 15 and 13 and 9
[6]; N_ values, KO group mean, table against F_KO-V, doses as E31
  Mean 2 (N_ group mean), NOR: 10.82
[6]; N_ values, KO group mean
  Mean 2 (group mean), NOR: 10.82
[6]; [13]
  Mean Diff. (N_WT-V vs. group), NOR: 3.082

## CNS(=O)(=O)Cc1ccc2[nH]cc(CCN(C)C)c2c1 [Sumatriptan, 1-[3-[2-(dimethylamino)ethyl]-1H-indol-5-yl]-N-methylmethanesulfonamide]
[1]
  Mean 2 (F_ group mean), Sociability: 62.20
[1]; [10]
  Mean Diff. (F_KO-V vs. F_ group), Sociability: 19.40
[1]; [21]
  Sociability, F_KO-Sumatriptan: 61 (2×) and 64 and 65 (2×) and 60 (3×) and 63 (2×)
[1]; [22]
  Sociability, N_KO-Sumatriptan: 99 and 97 (2×) and 103 and 98 and 90 and 102 and 100 and 95 and 101
[1]; N_ values
  Mean 2 (N_ group mean), Sociability: 98.20
  Mean 2 (group mean), Sociability: 98.20
[1]; [23]
  Mean Diff. (F_KO-V vs. N_ group), Sociability: −18.80
[1]; [13]
  Mean Diff. (N_WT-V vs. group), Sociability: 0.9000
[7]; administered orally
  half life: 1.7 h
[7]; administered subcutaneous
  half life: 1.9 h
[2]
  Mean Diff. (KO-V vs. group), Test of daily living: −3.500
  Mean Diff. (WT-V vs. group), Test of daily living: 0.1000
[2]; [22]
  Tests of daily living, KO-Sumatriptan: 5 (7×) and 4 (3×)
[2]; [14]
  Mean 2 (group mean), Test of daily living: 4.700
[2]; [15]
  Mean 2 (group mean), Test of daily living: 4.700
[3]; [16]
  Mean Diff. (KO-V vs. group), Hyponeophagia: 82.60
[3]; [22]
  Hyponeophagia, KO-Sumatriptan: 154 (2×) and 157 (2×) and 148 and 153 and 155 and 158 and 159 and 152
[3]; [17]
  Mean 2 (group mean), Hyponeophagia: 154.7
[3]; [18]
  Mean 2 (group mean), Hyponeophagia: 154.7
[4]; Dunnett's test against WT-V, Sumatriptan 20 mg/kg, 5-HTP 80 mg/kg, EM 4 mg/kg, Column F Ergoloid 2 + Sumatriptan 10 mg/kg, Ergoloid 2 + Oxitriptan 40 mg/kg
  Mean Diff. (WT-V vs. group), Open Field: −3209
[4]; [19]
  Mean 2 (group mean), Open Field: 7416
[4]; [20]
  Mean 2 (group mean), Open Field: 7416
[8]
  GH response to sumatriptan: significantly greater than to placebo
[9]
  effect on FXS phenotypes: ameliorates the FXS phenotypes in FMR1 mice
[5]
  Mean Diff. (KO-V vs. group), Stereotypy: 14.60
  Data table Stereotypy (individual animals): 29 and 35 and 31 (2×) and 30 (3×) and 32 and 28 and 33
[6]; F_ values, Dunnett's test against F_KO-V, Sumatriptan 20, Oxitriptan 40, Ergoloid 4 mg/kg, Ergoloid 2 + Oxitriptan 40 mg/kg
  Mean Diff. (F_KO-V vs. F_ group), NOR: −0.2000
[6]; [21]
  Novel Object Recognition, F_KO-Sumatriptan: 9 (2×) and 5 (2×) and 8 (2×) and 7 (2×) and 4 and 6
[6]; [22]
  Novel Object Recognition, N_KO-Sumatriptan: 6 (2×) and 8 (2×) and 9 (3×) and 5 and 7
[6]; N_ values, KO group mean
  Mean 2 (group mean), NOR: 7.300
[6]; [23]
  Mean Diff. (F_KO-V vs. N_ group), NOR: −0.7000
[6]; [13]
  Mean Diff. (N_WT-V vs. group), NOR: 6.600
